Results: US7153863B2, “Therapeutic compounds based on pyrazolopyridline derivatives” (SmithKline Beecham Corporation, priority 2002, dated 2006)

System: HSV-1
Experiment: HSV-1 infection of Vero 76 cells, HSV DNA hybridization capture assay
Type: cell-based, herpes simplex virus 1
Details: Human alphaherpesvirus 1; HSV-1 (MOI=0.001) in Vero 76 cells, 40–48 hours at 37° C., viral DNA by hybridization/chemiluminescence
Description: Vero 76 cells were maintained in MEM with Earle's salts, L-glutamine, 8% FBS (Hyclone, A-1111-L) and 100 units/mL Penicillin-100 μg/mL Streptomycin. For assay conditions, FBS was reduced to 2%. Cells are seeded into 96-well tissue culture plates at a density of 5×10^4 cells/well after being incubated for 45 min at 37° C. in the presence of HSV-1 or HSV-2 (MOI=0.001). Test compounds are added to the wells and the plates are incubated at 37° C. for 40–48 hours. Cell lysates are prepared as follows: media was removed and replaced with 150 μL/well 0.2 N NaOH with 1% Igepal CA 630 or NP-40. Plates were incubated up to 14 days at room temperature in a humidified chamber to prevent evaporation.
For the detection probe, a gel-purified, digoxigenin-labeled, […] PCR fragment of the HSV UL-15 sequence was utilized. PCR conditions included 0.5 μM primers, 180 μM dTP, 20 μM dUTP-digoxigenin (Boehringer Mannheim 1558706), 200 μM each of dATP, dCTP, and dGTP, 1×PCR Buffer II (Perkin Elmer), 2.5 mM MgCl2, 0.025 units/μL of AmpliTaq Gold polymerase (Perkin Elmer), and 5 ng of gel-purified HSV DNA per 100 μL Extension conditions were 10 min at 95° C., followed by 30 cycles of 95° C. for 1 min, 55° C. for 30 sec, and 72° C. for 2 min. The amplification was completed with a 10-min incubation at 72° C. Primers were selected to amplify a 728 bp probe spanning a section of the HSV1 UL15 open reading frame (nucleotides 249–977). Single-stranded transcripts were purified with Promega M13 Wizard kits. The final product was mixed 1:1 with a mixture of 6 M GuSCN, 100 mM EDTA and 200 μg/mL herring sperm DNA and stored at 4° C.
The capture DNA plasmid (HSV UL13 region in pUC) was linearized by cutting with Xba I, denatured for 15 min at 95° C. and diluted immediately into Reacti-Bind DNA Coating Solution (Pierce, 17250, diluted 1:1 with TE buffer, pH 8) at 1 ng/μL 75 μL/well were added to Corning (#3922 or 9690) white 96-well plates and incubated at room temperature for at least 4 hrs before washing twice with 300 μL/well 0.2×SSC/0.05% Tween-20 (SSC/T buffer). The plates were then incubated overnight at room temperature with 150 μL/well 0.2 N NaOH, 1% IGEPAL and 10 μg/mL herring sperm DNA.
Twenty-seven (27) μL of cell lysate was combined with 45 μL of hybridization solution (final concentration: 3M GuSCN, 50 mM EDTA, 100 μg/ml salmon sperm DNA, 5× Denhardt's solution, 0.25×APE, and 5 ng of the digoxigenin-labeled detection probe). APE is 1.5 M NH4-acetate, 0.15 M ammonium phosphate monobasic, and 5 mM EDTA adjusted to pH 6.0. Mineral oil (50 μL) was added to prevent evaporation. The hybridization plates were incubated at 95° C. for 10 minutes to denature the DNA, then incubated at 42° C. overnight. The wells were washed 6× with 300 μL/well SSC/T buffer then incubated with 75 μL/well anti-digoxigenin-HRP-conjugated antibody (Boehringer Mannheim 1207733, 1:5000 in TE) for 30 min at room temperature. The wells were washed 6× with 300 μL/well with PBS/0.05% Tween-20 before 75 μL/well SuperSignal LBA substrate (Pierce) was added. The plates were incubated at room temperature for 30 minutes and chemiluminescence was measured in a Wallac Victor reader.
The following results were obtained for HSV-1.

Compound | IC50 [µM]
COCc1nn2c(SC)cccc2c1-c1ccnc(NC2CCCC2)n1 [Example 21, N-Cyclopentyl-4-[2-(methoxymethyl)-7-(methylsulfanyl)pyrazolo[1,5-a]pyridin-3-yl]-2-pyrimidinamine] | 4.6
O=C(c1ccccc1)c1nn2ccccc2c1-c1ccnc(NC2CCCC2)n1 [Example 15, {3-[2-(Cyclopentylamino)-4-pyrimidinyl]pyrazolo[1,5-a]pyridin-2-yl}(phenyl)methanone] | 7
CC(C)Cc1nn2ccccc2c1-c1ccnc([S+](C)[O-])n1 (stereo not shown) [Example 6, 2-Isobutyl-3-[2-(methylsulfinyl)pyrimidin-4-yl]pyrazolo[1,5-a]pyridine] | 24
CCCc1nn2ccccc2c1-c1ccnc(NC2CCCC2)c1 [Example 2, N-Cyclopentyl-4-(2-propylpyrazolo[1,5-a]pyridin-3-yl)pyridin-2-amine] | 8
c1ccc(Cc2nn3ccccc3c2-c2ccnc(NC3CCCC3)n2)cc1 [Example 17, 4-(2-Benzylpyrazolo[1,5-a]pyridin-3-yl)-N-cyclopentyl-2-pyrimidinamine] | 2
OC(c1ccccc1)c1nn2ccccc2c1-c1ccnc(NC2CCCC2)n1 (stereo not shown) [Example 14, {3-[2-(Cyclopentylamino)-4-pyrimidinyl]pyrazolo[1,5-a]pyridin-2-yl}(phenyl)methanol] | 2.5
CSc1cccc2c(-c3ccnc(NC4CCCC4)n3)c(CC(C)C)nn12 [Example 8, N-Cyclopentyl-4-[2-isobutyl-7-(methylthio)pyrazolo[1,5-a]pyridin-3-yl]pyrimidin-2-amine] | 3.8
CCCc1nn2c(Cl)cccc2c1-c1ccnc(F)c1 [Example 3, 7-Chloro-3-(2-fluoropyridin-4-yl)-2-propylpyrazolo[1,5-a]pyridine] | 37
COCc1nn2ccccc2c1-c1ccnc(NC2CCCC2)n1 [Example 20, N-Cyclopentyl-4-[2-(methoxymethyl)pyrazolo[1,5-a]pyridin-3-yl]-2-pyrimidinamine] | 15
CC(C)Cc1nn2c([S+](C)[O-])cccc2c1-c1ccnc(NC2CCCC2)n1 (stereo not shown) [Example 9, N-Cyclopentyl-4-[2-isobutyl-7-(methylsulfinyl)pyrazolo[1,5-a]pyridin-3-yl]pyrimidin-2-amine] | 1.9
COCc1nn2c(NC3CCCC3)cccc2c1-c1ccnc(NC2CCCC2)n1 [Example 22, N-Cyclopentyl-3-[2-(cyclopentylamino)-4-pyrimidinyl]-2-(methoxymethyl)pyrazolo[1,5-a]pyridin-7-amine] | 1.2
CC(C)Cc1nn2c(NC3CCCC3)cccc2c1-c1ccnc(NC2CCCC2)n1 [Example 10, N-Cyclopentyl-3-[2-(cyclopentylamino)pyrimidin-4-yl]-2-isobutylpyrazolo[1,5-a]pyridin-7-amine] | 0.5
CSc1nccc(-c2c(C=O)nn3ccccc23)n1 [Example 12, 3-[2-(Methylthio)pyrimidin-4-yl]pyrazolo[1,5-a]pyridine-2-carbaldehyde] | > 5
CCCc1nn2c(NC3CCCC3)cccc2c1-c1ccnc(NC2CCCC2)c1 [Example 4, N-Cyclopentyl-3-[2-(cyclopentylamino)pyridin-4-yl]-2-propylpyrazolo[1,5-a]pyridin-7-amine] | 0.9
O=C(c1ccccc1)c1nn2c(NC3CCCC3)cccc2c1-c1ccnc(NC2CCCC2)n1 [Example 16, {7-(Cyclopentylamino)-3-[2-(cyclopentylamino)-4-pyrimidinyl]-pyrazolo[1,5-a]pyridin-2-yl}(phenyl)methanone] | 0.4
CC(C)Cc1nn2ccccc2c1-c1ccnc(NC2CCCC2)n1 [Example 7, N-Cyclopentyl-4-(2-isobutylpyrazolo[1,5-a]pyridin-3-yl)pyrimidin-2-amine] | 18
CSc1nccc(-c2c(CC(C)C)nn3ccccc23)n1 [Example 5, 2-Isobutyl-3-[2-(methylthio)pyrimidin-4-yl]pyrazolo[1,5-a]pyridine] | 21
c1ccc(Cc2nn3c(NC4CCCC4)cccc3c2-c2ccnc(NC3CCCC3)n2)cc1 [Example 19, N-{4-[2-Benzyl-7-(cyclopentylamino)pyrazolo[1,5-a]pyridin-3-yl]-2-pyrimidinyl}-N-cyclopentylamine] | 0.8
CCCc1nn2ccccc2c1-c1ccnc(F)c1 [Example 1, 3-(2-Fluoropyridin-4-yl)-2-propylpyrazolo[1,5-a]pyridine] | > 40

Continued, values first:

IC50 [µM] | Compound
23 | COCCOCc1nn2c(Cl)cccc2c1-c1ccnc(NC2CCCC2)n1 [Example 29, 4-{7-Chloro-2-[(2-methoxyethoxy)methyl]pyrazolo[1,5-a]pyridin-3-yl}-N-cyclopentyl-2-pyrimidinamine]
4.4 | CC(C)c1nn2ccccc2c1-c1ccnc(NC2CCCC2)n1 [Example 32, N-Cyclopentyl-4-(2-isopropylpyrazolo[1,5-a]pyridin-3-yl)pyrimidin-2-amine]
0.9 | c1cc(NC2CCCC2)n2nc(C3CC3)c(-c3ccnc(NC4CCCC4)n3)c2c1 [Example 36, N-Cyclopentyl-3-[2-(cyclopentylamino)pyrimidin-4-yl]-2-cyclopropylpyrazolo[1,5-a]pyridin-7-amine]
> 2.5 | CC(C)NCc1nn2c(NC3CCCC3)cccc2c1-c1ccnc(NC2CCCC2)n1 [Example 26, N-Cyclopentyl-3-[2-(cyclopentylamino)-4-pyrimidinyl]-2-[(isopropylamino)methyl]pyrazolo[1,5-a]pyridin-7-amine]
23 | CC(C)NCCCc1nn2c(Cl)cccc2c1-c1ccnc(NC2CCCC2)n1 [Example 27, 4-{7-Chloro-2-[3-(isopropylamino)propyl]pyrazolo[1,5-a]pyridin-3-yl}-N-cyclopentyl-2-pyrimidinamine]
> 2.5 | c1cc(NC2CCCC2)n2nc(CCCN3CCCC3)c(-c3ccnc(NC4CCCC4)n3)c2c1 [Example 23, N-Cyclopentyl-3-[2-(cyclopentylamino)-4-pyrimidinyl]-2-[3-(1-pyrrolidinyl)propyl]pyrazolo[1,5-a]pyridin-7-amine]
27 | CC(C)NCc1nn2ccccc2c1-c1ccnc(NC2CCCC2)n1 [Example 25, N-Cyclopentyl-4-{2-[(isopropylamino)methyl]pyrazolo[1,5-a]pyridin-3-yl}-2-pyrimidinamine]
> 5 | CC(C)NCCCc1nn2c(NC3CCCC3)cccc2c1-c1ccnc(NC2CCCC2)n1 [Example 28, N-Cyclopentyl-3-[2-(cyclopentylamino)-4-pyrimidinyl]-2-[3-(isopropylamino)propyl]pyrazolo[1,5-a]pyridin-7-amine]
1.5 | COCCOCc1nn2c(NC3CCCC3)cccc2c1-c1ccnc(NC2CCCC2)n1 [Example 31, N-Cyclopentyl-3-[2-(cyclopentylamino)-4-pyrimidinyl]-2-[(2-methoxyethoxy)methyl]pyrazolo[1,5-a]pyridin-7-amine]
2 | CC(C)c1nn2c(NC3CCCC3)cccc2c1-c1ccnc(NC2CCCC2)n1 [Example 33, N-Cyclopentyl-3-[2-(cyclopentylamino)pyrimidin-4-yl]-2-isopropylpyrazolo[1,5-a]pyridin-7-amine]
4.7 | COCCNc1cccc2c(-c3ccnc(NC4CCCC4)n3)c(COCCOC)nn12 [Example 30, 3-[2-(Cyclopentylamino)-4-pyrimidinyl]-2-[(2-methoxyethoxy)methyl]-N-(2-methoxyethyl)pyrazolo[1,5-a]pyridin-7-amine]
3.1 | c1ccn2nc(C3CC3)c(-c3ccnc(NC4CCCC4)n3)c2c1 [Example 35, N-Cyclopentyl-4-(2-cyclopropylpyrazolo[1,5-a]pyridin-3-yl)pyrimidin-2-amine]
